In US20230416248A1, “COMPOUNDS AND USES THEREOF” (Foghorn Therapeutics Inc., priority 2020, published 2023):

Tests used:
[1] = target: T1, BRG-1 (Homo sapiens, UniProt P51532); assay: ATPase catalytic activity of BRG-1, ADP-Glo in vitro biochemical assay; details: ATPase catalytic activity, ADP-Glo; 30 nM BRG-1, 400 μM ATP; read-out: BRG1 IC50
T1 construct: made in house; host or cells: High Five insect cells
Summary of the method: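 Biochemical ADP-Glo assay, BRG-1. Post-reaction: ATP depletion reagent, 40 min RT; ADP→ATP conversion/detection reagent, 60 min RT; luminescence read on plate luminometer.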

[2] = target: T2, BRM (Homo sapiens, UniProt P51531); assay: ATPase catalytic activity of BRM, ADP-Glo in vitro biochemical assay; details: for IC50: ATPase catalytic activity, ADP-Glo, 30 nM BRM, 400 μM ATP; for Ratio*: ratio of BRG1 IC50 to BRM IC50
T2 construct: made in house; host or cells: High Five insect cells
T2 sequence (P51531 whole entry): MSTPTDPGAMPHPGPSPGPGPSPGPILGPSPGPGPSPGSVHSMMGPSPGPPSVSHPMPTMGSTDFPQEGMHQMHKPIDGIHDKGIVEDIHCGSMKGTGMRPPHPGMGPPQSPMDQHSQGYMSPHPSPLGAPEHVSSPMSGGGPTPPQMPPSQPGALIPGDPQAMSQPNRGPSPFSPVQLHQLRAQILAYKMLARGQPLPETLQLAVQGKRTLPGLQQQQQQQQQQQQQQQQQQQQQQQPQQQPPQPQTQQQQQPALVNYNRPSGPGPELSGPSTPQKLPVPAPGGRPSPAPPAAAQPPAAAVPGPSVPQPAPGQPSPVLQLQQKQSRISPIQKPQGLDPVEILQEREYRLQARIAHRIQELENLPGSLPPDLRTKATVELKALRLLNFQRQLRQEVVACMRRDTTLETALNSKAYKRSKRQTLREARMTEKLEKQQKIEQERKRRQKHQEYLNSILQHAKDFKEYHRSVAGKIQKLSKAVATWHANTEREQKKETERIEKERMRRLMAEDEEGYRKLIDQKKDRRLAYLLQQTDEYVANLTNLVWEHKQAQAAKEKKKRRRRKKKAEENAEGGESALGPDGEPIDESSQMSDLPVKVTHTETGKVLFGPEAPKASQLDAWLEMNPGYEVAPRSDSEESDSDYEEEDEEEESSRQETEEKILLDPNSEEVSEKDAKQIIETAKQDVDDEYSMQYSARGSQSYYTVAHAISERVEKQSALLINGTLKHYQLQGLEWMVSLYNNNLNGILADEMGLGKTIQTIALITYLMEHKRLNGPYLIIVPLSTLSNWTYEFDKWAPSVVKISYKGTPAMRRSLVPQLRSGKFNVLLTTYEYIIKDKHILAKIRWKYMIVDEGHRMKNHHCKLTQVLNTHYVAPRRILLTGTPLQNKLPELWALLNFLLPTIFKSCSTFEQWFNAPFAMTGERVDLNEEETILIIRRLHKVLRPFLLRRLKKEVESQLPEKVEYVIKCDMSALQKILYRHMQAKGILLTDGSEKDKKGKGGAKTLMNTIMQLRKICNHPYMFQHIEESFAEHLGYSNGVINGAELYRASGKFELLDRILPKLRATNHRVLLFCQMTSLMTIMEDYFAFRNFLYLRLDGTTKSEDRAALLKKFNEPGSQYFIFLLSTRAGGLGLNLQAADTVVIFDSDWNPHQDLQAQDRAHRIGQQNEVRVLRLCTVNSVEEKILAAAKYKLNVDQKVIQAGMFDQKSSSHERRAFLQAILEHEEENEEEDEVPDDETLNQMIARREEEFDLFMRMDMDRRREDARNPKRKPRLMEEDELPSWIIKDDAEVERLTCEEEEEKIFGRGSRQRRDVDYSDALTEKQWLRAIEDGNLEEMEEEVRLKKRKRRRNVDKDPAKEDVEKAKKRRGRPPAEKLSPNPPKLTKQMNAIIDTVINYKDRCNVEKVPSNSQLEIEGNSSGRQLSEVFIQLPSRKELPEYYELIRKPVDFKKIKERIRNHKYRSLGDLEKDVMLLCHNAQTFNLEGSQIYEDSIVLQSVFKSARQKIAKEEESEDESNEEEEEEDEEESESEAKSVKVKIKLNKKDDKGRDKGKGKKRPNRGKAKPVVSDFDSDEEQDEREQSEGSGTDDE
Summary of the method: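 Recombinant BRM (30 nM) hydrolysed 400 μM ATP with 20 nM salmon sperm DNA in pH 8 Tris buffer containing 20 mM MgCl2, 50 mM NaCl, 0.1% Tween-20 and 1 mM DTT, 1 h at room temperature. ADP formed was quantified by ADP-Glo luminescence.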

T1 sequence (P51532 whole entry): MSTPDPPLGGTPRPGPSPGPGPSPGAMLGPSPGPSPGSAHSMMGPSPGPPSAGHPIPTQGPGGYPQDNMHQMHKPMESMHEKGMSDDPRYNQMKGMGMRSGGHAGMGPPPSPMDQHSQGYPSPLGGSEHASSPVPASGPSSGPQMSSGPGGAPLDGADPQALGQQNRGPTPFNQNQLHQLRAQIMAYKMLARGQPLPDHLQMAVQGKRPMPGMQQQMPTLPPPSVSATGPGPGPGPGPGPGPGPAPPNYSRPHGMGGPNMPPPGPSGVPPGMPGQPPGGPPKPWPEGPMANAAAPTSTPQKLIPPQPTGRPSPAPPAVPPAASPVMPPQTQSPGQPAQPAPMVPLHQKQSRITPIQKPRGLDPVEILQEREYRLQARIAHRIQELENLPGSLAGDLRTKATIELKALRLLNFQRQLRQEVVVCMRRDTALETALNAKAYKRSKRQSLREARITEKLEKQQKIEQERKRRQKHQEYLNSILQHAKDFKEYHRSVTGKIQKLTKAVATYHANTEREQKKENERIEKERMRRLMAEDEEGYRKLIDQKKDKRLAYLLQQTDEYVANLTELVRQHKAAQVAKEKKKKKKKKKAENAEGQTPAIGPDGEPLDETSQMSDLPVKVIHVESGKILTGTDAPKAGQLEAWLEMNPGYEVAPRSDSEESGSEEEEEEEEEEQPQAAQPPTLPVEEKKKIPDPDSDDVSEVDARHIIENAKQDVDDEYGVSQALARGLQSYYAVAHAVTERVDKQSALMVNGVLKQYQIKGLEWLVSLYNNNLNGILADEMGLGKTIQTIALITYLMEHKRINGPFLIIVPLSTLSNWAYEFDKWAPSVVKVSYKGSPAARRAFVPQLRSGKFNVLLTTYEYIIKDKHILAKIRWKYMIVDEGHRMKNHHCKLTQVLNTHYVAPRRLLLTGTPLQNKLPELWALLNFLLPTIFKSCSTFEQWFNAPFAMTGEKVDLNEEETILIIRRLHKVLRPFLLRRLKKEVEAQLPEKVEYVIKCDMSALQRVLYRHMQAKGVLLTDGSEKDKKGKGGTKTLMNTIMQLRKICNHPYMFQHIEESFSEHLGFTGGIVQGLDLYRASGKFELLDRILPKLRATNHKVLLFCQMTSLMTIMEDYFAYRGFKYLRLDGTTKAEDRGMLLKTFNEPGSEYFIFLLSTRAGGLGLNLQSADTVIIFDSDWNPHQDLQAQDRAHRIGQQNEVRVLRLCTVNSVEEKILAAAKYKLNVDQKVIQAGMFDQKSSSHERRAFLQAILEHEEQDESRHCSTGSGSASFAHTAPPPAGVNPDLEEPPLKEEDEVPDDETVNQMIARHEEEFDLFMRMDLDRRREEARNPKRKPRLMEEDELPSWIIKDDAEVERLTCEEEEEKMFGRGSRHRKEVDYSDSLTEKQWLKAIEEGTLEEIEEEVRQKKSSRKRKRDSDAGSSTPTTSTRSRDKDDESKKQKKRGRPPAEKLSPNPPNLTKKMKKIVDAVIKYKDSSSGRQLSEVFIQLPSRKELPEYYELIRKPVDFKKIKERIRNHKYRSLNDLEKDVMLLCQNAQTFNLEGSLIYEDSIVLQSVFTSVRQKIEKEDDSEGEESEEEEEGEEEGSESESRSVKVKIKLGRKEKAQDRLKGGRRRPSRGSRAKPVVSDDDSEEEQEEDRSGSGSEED

O=C(NCc1cc2nc(-c3ccc(C(F)F)cc3OC3CC3)ccc2cn1)c1ccc2c(c1)S(=O)(=O)CCOC2 [Compound 357]
IC50 [1]: 293 nM | IC50 [2]: 21.4 nM | Ratio* [2]: 13.72

COCCN(CC(F)F)c1cccc(-c2ccc3cnc(CNC(=O)c4ccc5c(c4)S(=O)(=O)CCOC5)cc3n2)n1 [Compound 358]
IC50 [1]: 35.4 nM | IC50 [2]: 4.6 nM | Ratio* [2]: 7.69

CN(CCOC1CC1)c1cccc(-c2ccc3cnc(CNC(=O)c4ccc5c(c4)S(=O)(=O)CCOC5)cc3n2)n1 [Compound 361]
IC50 [1]: 145 nM | IC50 [2]: 7.4 nM | Ratio* [2]: 19.62

C[C@@H]1CN(c2cccc(-c3ccc4cnc(CNC(=O)c5ccc6c(c5)S(=O)(=O)[C@H](C)CC6)cc4n3)n2)C[C@H](C)O1 [Compound 362]
IC50 [1]: 238 nM | IC50 [2]: 16.9 nM | Ratio* [2]: 14.06

CC1Cc2ccc(C(=O)NCc3cc4nc(-c5cccc(N6C[C@@H](C)O[C@@H](C)C6)n5)ccc4cn3)cc2S1(=O)=O (stereo partly drawn) [Compound 364]
IC50 [1]: 231 nM | IC50 [2]: 19 nM | Ratio* [2]: 12.21

CC(C)S(=O)(=O)c1cccc(C(=O)NCc2cc3nc(-c4cccc(N5C[C@@H](C)O[C@@H](C)C5)n4)ccc3cn2)c1 [Compound 365]
IC50 [1]: 325 nM | IC50 [2]: 13.1 nM | Ratio* [2]: 24.88

COCCOc1cc(C(F)F)ccc1-c1ccc2cnc(CNC(=O)c3ccc4c(c3)S(=O)(=O)CCOC4)cc2n1 [Compound 366]
IC50 [1]: 2960 nM | IC50 [2]: 324 nM | Ratio* [2]: 9.14

O=C(NCc1cc2nc(N3CCOc4cccnc43)ccc2cn1)c1ccc2c(c1)S(=O)(=O)CCOC2 [Compound 367]
IC50 [1]: 151 nM | IC50 [2]: 8.4 nM | Ratio* [2]: 17.87

COC[C@H]1C[C@@H]1c1cccc(-c2ccc3cnc(CNC(=O)c4ccc5c(c4)S(=O)(=O)CCOC5)cc3n2)n1 [Compound 369]
IC50 [1]: 416 nM | IC50 [2]: 36.1 nM | Ratio* [2]: 11.52

CCN(CC1COC1)c1cccc(-c2ccc3cnc(CNC(=O)c4ccc5c(c4)S(=O)(=O)CCOC5)cc3n2)n1 [Compound 370]
IC50 [1]: 152 nM | IC50 [2]: 14.6 nM | Ratio* [2]: 10.43

CCN(c1cccc(-c2ccc3cnc(CNC(=O)c4ccc5c(c4)S(=O)(=O)CCOC5)cc3n2)n1)[C@@H](C)COC [Compound 372]
IC50 [1]: 117 nM | IC50 [2]: 10.9 nM | Ratio* [2]: 10.78

COCCN(CC(C)(F)F)c1cccc(-c2ccc3cnc(CNC(=O)c4ccc5c(c4)S(=O)(=O)CCOC5)cc3n2)n1 [Compound 373]
IC50 [1]: 138 nM | IC50 [2]: 12.9 nM | Ratio* [2]: 10.75

COCCN(c1cccc(-c2ccc3cnc(CNC(=O)c4ccc5c(c4)S(=O)(=O)CCOC5)cc3n2)n1)C1CCC1 [Compound 374]
IC50 [1]: 70.7 nM | IC50 [2]: 8.8 nM | Ratio* [2]: 8.04

O=C(NCc1cc2nc(-c3cccc(OCC4CCC4)n3)ccc2cn1)c1ccc2c(c1)S(=O)(=O)CCOC2 [Compound 375]
IC50 [1]: 630 nM | IC50 [2]: 42.7 nM | Ratio* [2]: 14.74

O=C(NCc1cc2nc(-c3cccc(C4CCOC4)n3)ccc2cn1)c1ccc2c(c1)S(=O)(=O)CCOC2 (stereo not drawn) [Compound 376]
IC50 [1]: 535 nM | IC50 [2]: 66.4 nM | Ratio* [2]: 8.06

O=C(NCc1cc2nc(-c3cccc([C@]45CCOCC4C5)n3)ccc2cn1)c1ccc2c(c1)S(=O)(=O)CCOC2 (stereo partly drawn) [Compound 377]
IC50 [1]: 152 nM | IC50 [2]: 12.4 nM | Ratio* [2]: 12.27

O=C(NCc1cc2nc(-c3cccc([C@@]45CCOCC4C5)n3)ccc2cn1)c1ccc2c(c1)S(=O)(=O)CCOC2 (stereo partly drawn) [Compound 378]
IC50 [1]: 162 nM | IC50 [2]: 11.7 nM | Ratio* [2]: 13.88

Cn1ncc2c1CCCN2c1ccc2cnc(CNC(=O)c3ccc4c(c3)S(=O)(=O)CCOC4)cc2n1 [Compound 380]
IC50 [1]: 511 nM | IC50 [2]: 98.2 nM | Ratio* [2]: 5.20

O=C(NCc1cc2nc(-c3cccc(OCC4CC4)n3)ccc2cn1)c1ccc2c(c1)S(=O)(=O)CCOC2 [Compound 381]
IC50 [1]: 241 nM | IC50 [2]: 19.4 nM | Ratio* [2]: 12.43

CN(C[C@@H]1CCO1)c1cccc(-c2ccc3cnc(CNC(=O)c4ccc5c(c4)S(=O)(=O)CCOC5)cc3n2)n1 [Compound 382]
IC50 [1]: 120 nM | IC50 [2]: 9.1 nM | Ratio* [2]: 13.22

CN(C[C@H]1CCO1)c1cccc(-c2ccc3cnc(CNC(=O)c4ccc5c(c4)S(=O)(=O)CCOC5)cc3n2)n1 [Compound 383]
IC50 [1]: 72.4 nM | IC50 [2]: 6.6 nM | Ratio* [2]: 10.88

C[C@H]1COCc2ccc(C(=O)NCc3cc4nc(-c5cccc(OC(F)F)n5)ccc4cn3)cc2S1(=O)=O [Compound 384]
IC50 [1]: 407 nM | IC50 [2]: 14.3 nM | Ratio* [2]: 28.41

COc1cc(Cl)ccc1-c1ccc2cnc(CNC(=O)c3ccc4c(c3)S(=O)(=O)[C@@H](C)COC4)cc2n1 [Compound 386]
IC50 [1]: 140 nM | IC50 [2]: 9.2 nM | Ratio* [2]: 15.24

COc1cc(C2CC2)ccc1-c1ccc2cnc(CNC(=O)c3ccc4c(c3)S(=O)(=O)CCOC4)cc2n1 [Compound 387]
IC50 [1]: 727 nM | IC50 [2]: 68.3 nM | Ratio* [2]: 10.65

C[C@H]1COCc2ccc(C(=O)NCc3cc4nc(-c5cccc(OC(F)(F)F)n5)ccc4cn3)cc2S1(=O)=O [Compound 388]
IC50 [1]: 587 nM | IC50 [2]: 18.4 nM | Ratio* [2]: 31.86

C[C@@H]1CN(c2cccc(-c3ccc4cnc(CNC(=O)c5cc(Cl)c6c(c5)S(=O)(=O)CCOC6)cc4n3)n2)C[C@H](C)O1 [Compound 389]
IC50 [1]: 528 nM | IC50 [2]: 13.7 nM | Ratio* [2]: 38.63

O=C(NCc1cc2nc(-c3cccc(OCC4CC(F)(F)C4)n3)ccc2cn1)c1ccc2c(c1)S(=O)(=O)CCOC2 [Compound 390]
IC50 [1]: 1050 nM | IC50 [2]: 60.7 nM | Ratio* [2]: 17.24

O=C(NCc1cc2nc(-c3cccc(OCC4CC4(F)F)n3)ccc2cn1)c1ccc2c(c1)S(=O)(=O)CCOC2 (stereo not drawn) [Compound 391]
IC50 [1]: 456 nM | IC50 [2]: 28.7 nM | Ratio* [2]: 15.87

C[C@H]1COCc2ccc(C(=O)NCc3cc4nc(-c5cccc([C@H]6CC6(F)F)n5)ccc4cn3)cc2S1(=O)=O [Compound 392]
IC50 [1]: 1100 nM | IC50 [2]: 42.1 nM | Ratio* [2]: 26.15

C[C@H]1COCc2ccc(C(=O)NCc3cc4nc(-c5cccc([C@@H]6CC6(F)F)n5)ccc4cn3)cc2S1(=O)=O [Compound 393]
IC50 [1]: 638 nM | IC50 [2]: 19 nM | Ratio* [2]: 33.52

O=C(NCc1cc2nc(N3CCCc4cc(C5CC5)cnc43)ccc2cn1)c1ccc2c(c1)S(=O)(=O)CCOC2 [Compound 394]
IC50 [1]: 87.9 nM | IC50 [2]: 5.8 nM | Ratio* [2]: 15.21

Cc1cnc2c(c1)CCCN2c1ccc2cnc(CNC(=O)c3cc(F)c4c(c3)S(=O)(=O)CCOC4)cc2n1 [Compound 395]
IC50 [1]: 58.6 nM | IC50 [2]: 4.1 nM | Ratio* [2]: 14.47

Cc1cnc2c(c1)CCCN2c1ccc2cnc(CNC(=O)c3ccc4c(c3)S(=O)(=O)[C@@H](C)COC4)cc2n1 [Compound 396]
IC50 [1]: 104 nM | IC50 [2]: 5.9 nM | Ratio* [2]: 17.40

Cn1c(C(F)F)cc2c(-c3ccc4cnc(CNC(=O)c5ccc6c(c5)S(=O)(=O)CCOC6)cc4n3)ccnc21 [Compound 397]
IC50 [1]: 175 nM | IC50 [2]: 15.2 nM | Ratio* [2]: 11.51

O=C(NCc1cc2nc(-c3cccc(N(C4CCOCC4)C4CC4)n3)ccc2cn1)c1ccc2c(c1)S(=O)(=O)CCOC2 [Compound 398]
IC50 [1]: 919 nM | IC50 [2]: 185 nM | Ratio* [2]: 4.97

COc1nc(-c2ccc3cnc(CNC(=O)c4ccc5c(c4)S(=O)(=O)CCOC5)cc3n2)ccc1C(F)F [Compound 399]
IC50 [1]: 114 nM | IC50 [2]: 7.8 nM | Ratio* [2]: 14.57

COCCn1ncc2c1CCCN2c1ccc2cnc(CNC(=O)c3ccc4c(c3)S(=O)(=O)CCOC4)cc2n1 [Compound 400]
IC50 [1]: 478 nM | IC50 [2]: 20.4 nM | Ratio* [2]: 23.51

COCCN1CCOc2c(-c3ccc4cnc(CNC(=O)c5ccc6c(c5)S(=O)(=O)CCOC6)cc4n3)ccc(F)c21 [Compound 402]
IC50 [1]: 60.9 nM | IC50 [2]: 5.7 nM | Ratio* [2]: 10.67

COc1nc(C(F)F)ccc1-c1ccc2cnc(CNC(=O)c3cc(F)c4c(c3)S(=O)(=O)CCOC4)cc2n1 [Compound 404]
IC50 [1]: 142 nM | IC50 [2]: 8.4 nM | Ratio* [2]: 17.03

COc1nc(C(F)F)ccc1-c1ccc2cnc(CNC(=O)c3ccc4c(c3)S(=O)(=O)[C@@H](C)COC4)cc2n1 [Compound 405]
IC50 [1]: 188 nM | IC50 [2]: 10.9 nM | Ratio* [2]: 17.27

C[C@@H]1CN(c2cccc(-c3ccc4nnc(CNC(=O)c5ccc(Cl)c(S(C)(=O)=O)c5)cc4n3)n2)C[C@H](C)O1 [Compound 406]
IC50 [1]: 69.7 nM | IC50 [2]: 5 nM | Ratio* [2]: 13.86

C[C@@H]1CN(c2cccc(-c3ccc4cnc(CNC(=O)c5cnc6c(c5)S(=O)(=O)CCCC6(F)F)cc4n3)n2)C[C@H](C)O1 [Compound 407]
IC50 [1]: 58.6 nM | IC50 [2]: 12.5 nM | Ratio* [2]: 4.69

Cc1ccc2c(n1)CN(c1ccc3cnc(CNC(=O)c4ccc5c(c4)S(=O)(=O)CCOC5)cc3n1)CC2 [Compound 408]
IC50 [1]: 2270 nM | IC50 [2]: 476 nM | Ratio* [2]: 4.77

O=C(NCc1cc2nc(-c3cccc4c3OCC[C@H]4OC3COC3)ccc2cn1)c1ccc2c(c1)S(=O)(=O)CCOC2 [Compound 409]
IC50 [1]: 143 nM | IC50 [2]: 16.6 nM | Ratio* [2]: 8.58

O=C(NCc1cc2nc(-c3cccc4c3OCC[C@@H]4OC3COC3)ccc2cn1)c1ccc2c(c1)S(=O)(=O)CCOC2 [Compound 410]
IC50 [1]: 1100 nM | IC50 [2]: 165 nM | Ratio* [2]: 6.68
